According to patent US7687490B2, “2-thioethenyl substituted carbapenem derivatives” (Meiji Seika Kaisha, Ltd., priority 2005, dated 2010):
≈ marks a conversion by molar mass, not a printed value.

Legend:
Test in all cases: Antimicrobial activity, MIC (Test Example 1)
Type in all cases: cell-based
[1] = tested on: H. influenzae 870; details: Sensitivity Disk agar-N+5% Horse blood, inoculants 10^6 CFU/ml; for MIC: Haemophilus influenzae, read-out: minimum inhibitory concentrations (MIC)
Method: (§1) The minimum inhibitory concentrations (MIC, μg/ml) of representative compounds, among the novel carbapenem derivatives of the present invention, to various pathogenic bacteria were measured in accordance with the method described in CHEMOTHERAPY, vol. 16, No. 1, 99, 1968. The culture medium for the measurement is Sensitivity Disk agar-N+5% Horse blood, and the amount of inoculants used is 10^6 CFU/ml.

[2] = tested on: M. catarrhalis W-500; details: Moraxella catarrhalis, W500, Sensitivity Disk agar-N+5% Horse blood, inoculants 10^6 CFU/ml, read-out: minimum inhibitory concentrations (MIC)
Method: as §1

[3] = tested on: S. aureus 209P JC-1; details: Sensitivity Disk agar-N+5% Horse blood, inoculants 10^6 CFU/ml; for MIC: Staphylococcus aureus, read-out: minimum inhibitory concentrations (MIC)
Method: as §1

[4] = tested on: S. pneumoniae R6; details: Sensitivity Disk agar-N+5% Horse blood, inoculants 10^6 CFU/ml; for MIC: Streptococcus pneumoniae, read-out: minimum inhibitory concentrations (MIC)
Method: as §1

[5] = tested on: H. influenzae PRC44; details: Sensitivity Disk agar-N+5% Horse blood, inoculants 10^6 CFU/ml; for MIC: Haemophilus influenzae, read-out: minimum inhibitory concentrations (MIC)
Method: as §1

[6] = tested on: S. pneumoniae 197; details: Streptococcus pneumoniae, Sensitivity Disk agar-N+5% Horse blood, inoculants 10^6 CFU/ml, read-out: minimum inhibitory concentrations (MIC)
Method: as §1

[7] = tested on: H. influenzae Rd; details: Sensitivity Disk agar-N+5% Horse blood, inoculants 10^6 CFU/ml; for MIC: Haemophilus influenzae, read-out: minimum inhibitory concentrations (MIC)
Method: as §1

[8] = tested on: E. coli W4680; details: Sensitivity Disk agar-N+5% Horse blood, inoculants 10^6 CFU/ml; for MIC: Escherichia coli, read-out: minimum inhibitory concentrations (MIC)
Method: as §1

[9] = tested on: K. pneumoniae GN69; details: Sensitivity Disk agar-N+5% Horse blood, inoculants 10^6 CFU/ml; for MIC: Klebsiella pneumoniae, read-out: minimum inhibitory concentrations (MIC)
Method: as §1

[10] = tested on: S. pneumoniae PRC53; details: Sensitivity Disk agar-N+5% Horse blood, inoculants 10^6 CFU/ml; for MIC: Streptococcus pneumoniae, read-out: minimum inhibitory concentrations (MIC)
Method: as §1

SMILES	MIC [1]	MIC [2]	MIC [3]	MIC [4]	MIC [5]	MIC [6]	MIC [7]	MIC [8]	MIC [9]	MIC [10]	minimum inhibitory concentrations (MIC) [1]	minimum inhibitory concentrations (MIC) [3]	minimum inhibitory concentrations (MIC) [4]	minimum inhibitory concentrations (MIC) [5]	minimum inhibitory concentrations (MIC) [7]	minimum inhibitory concentrations (MIC) [8]	minimum inhibitory concentrations (MIC) [9]	minimum inhibitory concentrations (MIC) [10]
C[C@@H](O)[C@H]1C(=O)N2C(C(=O)[O-])=C(S/C=C\c3scnc3CO)[C@H](C)[C@H]12.[Na+] [Example 41, Sodium (1R,5S,6S)-6-((1R)-1-hydroxyethyl)-2-[[(Z)-2-(4-hydroxymethylthiazol-5-yl)ethen-1-yl]thio]-1-methyl-1-carbapen-2-em-3-carboxylate]	0.125 µg/mL	0.063 µg/mL	0.031 µg/mL	0.008 µg/mL	0.125 µg/mL	0.125 µg/mL	0.031 µg/mL	1 µg/mL	0.5 µg/mL	0.063 µg/mL								
C[C@@H](O)[C@H]1C(=O)N2C(C(=O)[O-])=C(S/C=C\c3scnc3C(=O)N(C)C)[C@H](C)[C@H]12.[Na+] [Example 43, Sodium (1R,5S,6S)-2-[[(Z)-2-(4-N,N-dimethylcarbamoylthiazol-5-yl)ethen-1-yl]thio]-6-((1R)-1-hydroxyethyl)-1-methyl-1-carbapen-2-em-3-carboxylate]											0.25 µg/mL	0.063 µg/mL	0.008 µg/mL	0.125 µg/mL	0.031 µg/mL	4 µg/mL	4 µg/mL	0.063 µg/mL
C[C@@H](O)[C@H]1C(=O)N2C(C(=O)[O-])=C(S/C=C\c3nc(CO)cs3)[C@H](C)[C@H]12.[Na+] [Example 44, Sodium (1R,5S,6S)-6-((1R)-1-hydroxyethyl)-2-[[(Z)-2-(4-hydroxymethylthiazol-2-yl)ethen-1-yl]thio]-1-methyl-1-carbapen-2-em-3-carboxylate]	0.125 µg/mL	0.063 µg/mL	0.031 µg/mL	0.008 µg/mL	0.063 µg/mL	0.25 µg/mL	0.031 µg/mL	4 µg/mL	4 µg/mL	0.063 µg/mL								
C[C@@H](O)[C@H]1C(=O)N2C(C(=O)[O-])=C(S/C=C/c3scnc3CO)[C@H](C)[C@H]12.[Na+] [Example 61, Sodium (1R,5S,6S)-6-((1R)-1-hydroxyethyl)-2-[[(E)-2-(4-hydroxymethylthiazol-5-yl)ethen-1-yl]thio]-1-methyl-1-carbapen-2-em-3-carboxylate]	0.125 µg/mL	0.063 µg/mL	0.063 µg/mL	0.031 µg/mL	0.125 µg/mL	1 µg/mL	0.031 µg/mL	8 µg/mL	8 µg/mL	0.25 µg/mL								
C[C@@H](O)[C@H]1C(=O)N2C(C(=O)[O-])=C(S/C=C\c3ncsc3CO)[C@H](C)[C@H]12.[Na+] [Example 78, Sodium (1R,5S,6S)-6-((1R)-1-hydroxyethyl)-2-[[(Z)-2-(5-hydroxymethylthiazol-4-yl)ethen-1-yl]thio]-1-methyl-1-carbapen-2-em-3-carboxylate]	0.125 µg/mL	0.25 µg/mL	0.031 µg/mL	0.008 µg/mL	0.063 µg/mL	0.25 µg/mL	0.031 µg/mL	8 µg/mL	8 µg/mL	0.063 µg/mL								
C[C@@H](O)[C@H]1C(=O)N2C(C(=O)O)=C(SCCN=CN)C[C@H]12 [IPM, imipenem, reference compound]	4 µg/mL (≈ 13.4 µM)	0.063 µg/mL (≈ 0.21 µM)	0.016 µg/mL (≈ 0.0534 µM)	0.008 µg/mL (≈ 0.0267 µM)	16 µg/mL (≈ 53.4 µM)	1 µg/mL (≈ 3.34 µM)	1 µg/mL (≈ 3.34 µM)	0.125 µg/mL (≈ 0.418 µM)	0.125 µg/mL (≈ 0.418 µM)	0.125 µg/mL (≈ 0.418 µM)								
